Key:
[1] = molecular target: human V1a receptor (Homo sapiens, UniProt P37288); assay: Cellular in vitro assay for determining vasopressin receptor activity, V1a receptor cell line (photoprotein luminescence); type: cell-based; settings: for IC50: CHO cell line transfected with the human V1a receptor, agonist [Arg8]-vasopressin at EC50 concentration, read-out: IC50 hV1a; for ratio IC50 hV2/hV1a: selectivity ratio of the cellular IC50 values
Method: (§1) B-1. Cellular In Vitro Assay for Determining Vasopressin Receptor Activity
(§2) The identification of agonists and antagonists of the V1a and V2 vasopressin receptors from humans, rats and dogs as well as the quantification of the activity of the compounds of the invention is carried out using recombinant cell lines. These cell lines originally derive from a hamster's ovary epithelial cell (Chinese Hamster Ovary, CHO K1, ATCC: American Type Culture Collection, Manassas, Va. 20108, USA). The test cell lines constitutively express the human, rat or dog V1a or V2 receptors. In case of the Gαq-coupled V1a receptors, cells are also stably transfected with a modified form of the calcium-sensitive photoproteins aequorin (human and rat V1a) or obelin (dog V1a), which, after reconstitution with the cofactor coelenterazine, emit light when there are increases in free calcium concentrations [Rizzuto R, Simpson A W, Brini M, Pozzan T, Nature 358, 325-327 (1992); Illarionov B A, Bondar V S, Illarionova V A, Vysotski E S, Gene 153 (2), 273-274 (1995)]. The resulting vasopressin receptor cells react to stimulation of the recombinantly expressed V1a receptors by intracellular release of calcium ions, which can be quantified by the resulting photoprotein luminescence. The Gs-coupled V2 receptors are stably transfected into cell lines expressing the gene for firefly luciferase under control of a CRE-responsible promoter. Activation of V2 receptors induces the activation of the CRE-responsive promoter via cAMP increase, thereby inducing the expression of firefly luciferase. The light emitted by photoproteins of V1a cell lines as well as the light emitted by firefly luciferase of V2 cell lines corresponds to the activation or inhibition of the respective vasopressin receptor. The bioluminescence of the cell lines is detected using a suitable luminometer [Milligan G, Marshall F, Rees S, Trends in Pharmacological Sciences 17, 235-237 (1996)].
Vasopressin V1a Receptor Cell Lines:
On the day before the assay, the cells are plated out in culture medium (DMEM/F12, 2% FCS, 2 mM glutamine, 10 mM HEPES, 5 μg/ml coelenterazine) in 384-well microtiter plates and kept in a cell incubator (96% humidity, 5% v/v CO2, 37° C.). On the day of the assay, test compounds in various concentrations are placed for 10 minutes in the wells of the microtiter plate before the agonist [Arg^8]-vasopressin at EC50 concentration is added. The resulting light signal is measured immediately in a luminometer.
(§3) Table 1A below lists individual IC50 values for the compounds of the invention (including racemic mixtures as well as separated enantiomers) that were obtained from cell lines transfected with the human V1a or V2 receptor: […]

[2] = molecular target: T1, human V2 receptor (Homo sapiens, UniProt P30518); assay: Cellular in vitro assay for determining vasopressin receptor activity, V2 receptor cell line (CRE-luciferase); type: cell-based; settings: CHO cell line transfected with the human V2 receptor; agonist [Arg8]-vasopressin at EC50 concentration; read-out: IC50 hV2
T1 construct: expressed in transfected cells; host or cells: CHO K1 (ATCC) expressing firefly luciferase under a CRE-responsive promoter
Method: as §1, §2
Vasopressin V2 Receptor Cell Lines:
On the day before the assay, the cells are plated out in culture medium (DMEM/F12, 2% FCS, 2 mM glutamine, 10 mM HEPES) in 384-well microtiter plates and kept in a cell incubator (96% humidity, 5% v/v CO2, 37° C.). On the day of the assay, test compounds in various concentrations and the agonist [Arg^8]-vasopressin at EC50 concentration are added together to the wells, and plates are incubated for 3 hours in a cell incubator. Upon addition of the cell lysis reagent Triton™ and the substrate luciferin, luminescence of firefly luciferase is measured in a luminometer.
as §3

T1 sequence (P30518 whole entry): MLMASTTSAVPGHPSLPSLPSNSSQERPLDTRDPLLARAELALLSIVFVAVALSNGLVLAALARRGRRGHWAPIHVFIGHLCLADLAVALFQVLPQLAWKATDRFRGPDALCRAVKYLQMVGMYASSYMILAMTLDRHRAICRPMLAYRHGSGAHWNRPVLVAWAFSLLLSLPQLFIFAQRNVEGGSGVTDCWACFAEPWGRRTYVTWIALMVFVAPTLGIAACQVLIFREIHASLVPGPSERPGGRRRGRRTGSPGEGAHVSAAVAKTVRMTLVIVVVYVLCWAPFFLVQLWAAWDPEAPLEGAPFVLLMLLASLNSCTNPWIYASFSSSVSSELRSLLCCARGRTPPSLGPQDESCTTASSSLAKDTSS
Sequence of human V1a receptor (P37288 whole entry): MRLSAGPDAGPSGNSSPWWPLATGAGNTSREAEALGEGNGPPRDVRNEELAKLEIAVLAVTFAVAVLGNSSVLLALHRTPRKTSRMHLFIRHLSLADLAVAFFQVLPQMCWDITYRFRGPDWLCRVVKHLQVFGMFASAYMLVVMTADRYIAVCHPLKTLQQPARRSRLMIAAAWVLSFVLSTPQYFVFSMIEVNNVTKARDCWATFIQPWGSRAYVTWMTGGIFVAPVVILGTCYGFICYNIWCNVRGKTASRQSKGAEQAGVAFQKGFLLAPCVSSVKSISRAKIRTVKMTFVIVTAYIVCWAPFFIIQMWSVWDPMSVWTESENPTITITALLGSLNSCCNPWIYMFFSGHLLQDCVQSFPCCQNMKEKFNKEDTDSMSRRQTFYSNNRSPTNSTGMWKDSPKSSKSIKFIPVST

**Q.** With `O=c1n(Cc2nc(N3CCOC(C(F)(F)F)C3)n(CCC(F)(F)F)n2)nc(-c2ccc(Cl)cc2)n1C[C@H](O)C(F)(F)F` (single isomer, unassigned) [Example 104] as the compound, how does the IC50 [1] read?
**A.** The IC50 was 30.5 nM.

**Q.** What about the “ratio IC50 hV2/hV1a” value [1] of the same compound?
**A.** The value was 12.0.

**Q.** And the IC50 [2]?
**A.** Its IC50 is 365 nM.

**Q.** Which results are given for `O=c1n(Cc2nc(N3CCOC(C(F)(F)F)C3)n(CCC(F)(F)F)n2)nc(-c2ccc(Cl)cc2)n1C[C@H](O)C(F)(F)F` (single isomer, unassigned) [Example 105]?
**A.** IC50 [1]: 22 nM; ratio IC50 hV2/hV1a [1]: 8.2; IC50 [2]: 180 nM

**Q.** `O=c1n(Cc2nc(N3CCNC(C(F)(F)F)C3)n(CCC(F)(F)F)n2)nc(-c2ccc(Cl)cc2)n1C[C@H](O)C(F)(F)F` (single isomer, unassigned) [Example 107] was tested. Which IC50 [1] did it give?
**A.** Its IC50 is 43.5 nM.

**Q.** And the “ratio IC50 hV2/hV1a” value [1]?
**A.** Its value is 18.1.

**Q.** And the IC50 [2]?
**A.** Its IC50 is 785 nM.

**Q.** `O=c1n(Cc2nc(N3CCNC(C(F)(F)F)C3)n(CCC(F)(F)F)n2)nc(-c2ccc(Cl)cc2)n1C[C@H](O)C(F)(F)F` (single isomer, unassigned) [Example 108] was tested. Which IC50 [1] did it give?
**A.** Its IC50 is 10.7 nM.

**Q.** And the “ratio IC50 hV2/hV1a” value [1]?
**A.** The value was 7.9.

**Q.** What about the IC50 [2] of the same compound?
**A.** Its IC50 is 84 nM.

**Q.** `CC(C)(C)CNc1nc(Cn2nc(-c3ccc(Cl)cc3)n(C[C@H](O)C(F)(F)F)c2=O)nn1-c1ccccc1Cl` [Example 1, 5-(4-Chlorophenyl)-2-({1-(2-chlorophenyl)-5-[(2,2-dimethylpropyl)amino]-1H-1,2,4-triazol-3-yl}methyl)-4-[(2S)-3,3,3-trifluoro-2-hydroxypropyl]-2,4-dihydro-3H-1,2,4-triazol-3-one] was tested. Which IC50 [1] did it give?
**A.** The IC50 was 0.75 nM.

**Q.** And the “ratio IC50 hV2/hV1a” value [1]?
**A.** Its value is 2.5.

**Q.** And the IC50 [2]?
**A.** The IC50 was 1.85 nM.

**Q.** How did the IC50 [1] turn out when `CS(=O)(=O)C1CN(c2nc(Cn3nc(-c4ccc(Cl)cc4)n(C[C@H](O)C(F)(F)F)c3=O)nn2-c2ccccc2Cl)C1` [Example 2, 5-(4-Chlorophenyl)-2-({1-(2-chlorophenyl)-5-[3-(methylsulfonyl)azetidin-1-yl]-1H-1,2,4-triazol-3-yl}methyl)-4-[(2S)-3,3,3-trifluoro-2-hydroxypropyl]-2,4-dihydro-3H-1,2,4-triazol-3-one] was run?
**A.** The IC50 was 0.43 nM.

**Q.** What about the “ratio IC50 hV2/hV1a” value [1] of the same compound?
**A.** Its value is 1.9.

**Q.** What about the IC50 [2] of the same compound?
**A.** Its IC50 is 0.84 nM.

**Q.** What does the source list for `CC(C)(CF)CNc1nc(Cn2nc(-c3ccc(Cl)cc3)n(C[C@H](O)C(F)(F)F)c2=O)nn1-c1ccccc1Cl` [Example 3, 5-(4-Chlorophenyl)-2-({1-(2-chlorophenyl)-5-[(3-fluoro-2,2-dimethylpropyl)amino]-1H-1,2,4-triazol-3-yl}methyl)-4-[(2S)-3,3,3-trifluoro-2-hydroxypropyl]-2,4-dihydro-3H-1,2,4-triazol-3-one]?
**A.** IC50 [1]: 0.62 nM; ratio IC50 hV2/hV1a [1]: 3.5; IC50 [2]: 2.15 nM

**Q.** How did the IC50 [1] turn out when `COC(C)(C)CNc1nc(Cn2nc(-c3ccc(Cl)cc3)n(C[C@H](O)C(F)(F)F)c2=O)nn1-c1ccccc1Cl` [Example 4, 5-(4-Chlorophenyl)-2-({1-(2-chlorophenyl)-5-[(2-methoxy-2-methylpropyl)amino]-1H-1,2,4-triazol-3-yl}methyl)-4-[(2S)-3,3,3-trifluoro-2-hydroxypropyl]-2,4-dihydro-3H-1,2,4-triazol-3-one] was run?
**A.** The IC50 was 2.3 nM.

**Q.** What about the “ratio IC50 hV2/hV1a” value [1] of the same compound?
**A.** Its value is 2.1.

**Q.** What about the IC50 [2] of the same compound?
**A.** Its IC50 is 4.77 nM.

**Q.** Which IC50 [1] does the source give for `CC(C)(CNc1nc(Cn2nc(-c3ccc(Cl)cc3)n(C[C@H](O)C(F)(F)F)c2=O)nn1-c1ccccc1Cl)C(N)=O` [Example 5, 3-{[1-(2-Chlorophenyl)-3-({3-(4-chlorophenyl)-5-oxo-4-[(2S)-3,3,3-trifluoro-2-hydroxypropyl]-4,5-dihydro-1H-1,2,4-triazol-1-yl}methyl)-1H-1,2,4-triazol-5-yl]amino}-2,2-dimethylpropanamide] here?
**A.** The IC50 was 0.64 nM.

**Q.** What about the “ratio IC50 hV2/hV1a” value [1] of the same compound?
**A.** Its value is 6.0.

**Q.** What about the IC50 [2] of the same compound?
**A.** The IC50 was 3.8 nM.

**Q.** Which results are given for `NC(=O)[C@@H]1CC(F)(F)CN1c1nc(Cn2nc(-c3ccc(Cl)cc3)n(C[C@H](O)C(F)(F)F)c2=O)nn1-c1ccccc1Cl` [Example 9, 1-[1-(2-Chlorophenyl)-3-({3-(4-chlorophenyl)-5-oxo-4-[(2S)-3,3,3-trifluoro-2-hydroxypropyl]-4,5-dihydro-1H-1,2,4-triazol-1-yl}methyl)-1H-1,2,4-triazol-5-yl]-4,4-difluoro-L-prolinamide]?
**A.** IC50 [1]: 0.89 nM; ratio IC50 hV2/hV1a [1]: 18.8; IC50 [2]: 16.7 nM

**Q.** Which results are given for `NC(=O)[C@H]1CC(F)(F)CN1c1nc(Cn2nc(-c3ccc(Cl)cc3)n(C[C@H](O)C(F)(F)F)c2=O)nn1-c1ccccc1Cl` [Example 10, 1-[1-(2-Chlorophenyl)-3-({3-(4-chlorophenyl)-5-oxo-4-[(2S)-3,3,3-trifluoro-2-hydroxypropyl]-4,5-dihydro-1H-1,2,4-triazol-1-yl}methyl)-1H-1,2,4-triazol-5-yl]-4,4-difluoro-D-prolinamide]?
**A.** IC50 [1]: 0.63 nM; ratio IC50 hV2/hV1a [1]: 29.2; IC50 [2]: 18.2 nM

**Q.** With `CC(C)(C)OC(=O)N1CCC(O)(CNc2nc(Cn3nc(-c4ccc(Cl)cc4)n(C[C@H](O)C(F)(F)F)c3=O)nn2-c2ccccc2Cl)CC1` [Example 21, tert-Butyl 4-({[1-(2-chlorophenyl)-3-({3-(4-chlorophenyl)-5-oxo-4-[(2S)-3,3,3-trifluoro-2-hydroxypropyl]-4,5-dihydro-1H-1,2,4-triazol-1-yl}methyl)-1H-1,2,4-triazol-5-yl]amino}methyl)-4-hydroxypiperidine-1-carboxylate] as the compound, how does the IC50 [1] read?
**A.** The IC50 was 2 nM.

**Q.** And the “ratio IC50 hV2/hV1a” value [1]?
**A.** Its value is 17.8.

**Q.** And the IC50 [2]?
**A.** The IC50 was 35.5 nM.

**Q.** How did the IC50 [1] turn out when `O=c1n(Cc2nc(NCC3(O)CCNCC3)n(-c3ccccc3Cl)n2)nc(-c2ccc(Cl)cc2)n1C[C@H](O)C(F)(F)F` [Example 22, 5-(4-Chlorophenyl)-2-{[1-(2-chlorophenyl)-5-{[(4-hydroxypiperidin-4-yl)methyl]amino}-1H-1,2,4-triazol-3-yl]methyl}-4-[(2S)-3,3,3-trifluoro-2-hydroxypropyl]-2,4-dihydro-3H-1,2,4-triazol-3-one] was run?
**A.** The IC50 was 0.46 nM.

**Q.** And the “ratio IC50 hV2/hV1a” value [1]?
**A.** Its value is 26.1.

**Q.** What about the IC50 [2] of the same compound?
**A.** Its IC50 is 12 nM.

**Q.** `CC(F)(F)CNc1nc(Cn2nc(-c3ccc(Cl)cc3)n(C[C@H](O)C(F)(F)F)c2=O)nn1-c1ccccc1Cl` [Example 23, 5-(4-Chlorophenyl)-2-({1-(2-chlorophenyl)-5-[(2,2-difluoropropyl)amino]-1H-1,2,4-triazol-3-yl}methyl)-4-[(2S)-3,3,3-trifluoro-2-hydroxypropyl]-2,4-dihydro-3H-1,2,4-triazol-3-one] was tested. Which IC50 [1] did it give?
**A.** The IC50 was 1.25 nM.

**Q.** What about the “ratio IC50 hV2/hV1a” value [1] of the same compound?
**A.** Its value is 1.0.

**Q.** What about the IC50 [2] of the same compound?
**A.** The IC50 was 1.2 nM.

**Q.** How did the IC50 [1] turn out when `CS(=O)(=O)NCCNc1nc(Cn2nc(-c3ccc(Cl)cc3)n(C[C@H](O)C(F)(F)F)c2=O)nn1-c1ccccc1Cl` [Example 24, N-(2-{[1-(2-Chlorophenyl)-3-({3-(4-chlorophenyl)-5-oxo-4-[(2S)-3,3,3-trifluoro-2-hydroxypropyl]-4,5-dihydro-1H-1,2,4-triazol-1-yl}methyl)-1H-1,2,4-triazol-5-yl]amino}ethyl)methanesulfonamide] was run?
**A.** The IC50 was 0.4 nM.

**Q.** What about the “ratio IC50 hV2/hV1a” value [1] of the same compound?
**A.** Its value is 2.6.

**Q.** What about the IC50 [2] of the same compound?
**A.** Its IC50 is 1.02 nM.

**Q.** For `O=c1n(Cc2nc(NCCN3CCCCS3(=O)=O)n(-c3ccccc3Cl)n2)nc(-c2ccc(Cl)cc2)n1C[C@H](O)C(F)(F)F` [Example 25, 5-(4-Chlorophenyl)-2-{[1-(2-chlorophenyl)-5-{[2-(1,1-dioxido-1,2-thiazinan-2-yl)ethyl]amino}-1H-1,2,4-triazol-3-yl]methyl}-4-[(2S)-3,3,3-trifluoro-2-hydroxypropyl]-2,4-dihydro-3H-1,2,4-triazol-3-one], which IC50 [1] is on record?
**A.** Its IC50 is 0.43 nM.

**Q.** What about the “ratio IC50 hV2/hV1a” value [1] of the same compound?
**A.** The value was 2.0.

**Q.** What about the IC50 [2] of the same compound?
**A.** Its IC50 is 0.86 nM.

**Q.** For `CC(C)(CNc1nc(Cn2nc(-c3ccc(Cl)cc3)n(C[C@H](O)C(F)(F)F)c2=O)nn1-c1ccccc1Cl)NS(C)(=O)=O` [Example 26], which IC50 [1] is on record?
**A.** Its IC50 is 0.4 nM.

**Q.** And the “ratio IC50 hV2/hV1a” value [1]?
**A.** The value was 5.6.

**Q.** What about the IC50 [2] of the same compound?
**A.** Its IC50 is 2.2 nM.

From US11331314B2, “Amine substituted triazole derivatives and uses thereof” (Bayer Pharma Aktiengesellschaft, priority 2017, dated 2022)
